Measured values reported in publication PMC9019904, “AD Informer Set: Chemical tools to facilitate Alzheimer's disease drug discovery” (Alzheimer's & Dementia : Translational Research & Clinical …, 2022).
Values after ≈ are worked out from the molar mass of the structure shown.

Columns and labels:
[1] = test system: BV2 (mouse microglia) cell line; assay: pHrodo-myelin phagocytosis/cell viability high content imaging assay: phagocytosis signal; format: cell-based
In short: (§1)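 HCI read-out ~22 h post pHrodo-myelin; phagocytosis + viability simultaneously; 3 parameters extracted; intensity up = early apoptosis, down = later apoptosis.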

[2] = test system: HMC3 (human microglia) cell line; assay: as above; format: cell-based
In short: as §1

physchem = settings: pH 7.4, aqueous buffer, kinetic from dmso stock
[3] = test system: BV2 (mouse microglia) cell line; assay: pHrodo-myelin phagocytosis/cell viability high content imaging assay: viability (cell count, nuclear area, nuclear intensity)
In short: (§2)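 BV2 mouse and HMC3 human microglia were treated with compounds at 10 μM for 48 h, with pHrodo-myelin present for the last 20 h. Viability was imaged as total cell count per well and mean nuclear intensity per cell. Values are means of duplicates, normalized to untreated wells as % control.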

cellular system = settings: published cellular activity at 10 μM; cited from earlier work
[4] = test system: HMC3 (human microglia) cell line; assay: pHrodo-myelin phagocytosis/cell viability high content imaging assay: viability (cell count, nuclear area, nuclear intensity); settings: for Human microglial cytotoxicity at 10 μM (<70% control): HMC3, 10 μM
In short: as §2

[5] = BV2 cells, 10 uM compound, 48 hours treatment
[6] = HMC3 cells, 10 uM compound, 48 hours treatment

CC(C)CCC[C@@H](C)[C@H]1CC[C@H]2[C@@H]3CC[C@H]4C[C@H](N)CC[C@]4(C)[C@H]3CC[C@]12C [3α-Aminocholestane]
Stimulation of mouse microglial phagocytosis at 10 μM (>150% control) ([1]; 10 μM, BV2): Y (The compound was found to stimulate phagocytosis (response threshold: >150% control) when murine immortalized microglial cells were dosed at 10 μM (Y: yes))
Inhibition of human microglial phagocytosis at 10 μM (<70% control) ([2]; 10 μM, HMC3): Y (The compound was found to inhibit phagocytosis (response threshold: <70% control) when human immortalized microglial cells were dosed at 10 μM (Y: yes))
solubility kinetic (physchem): 2.2 µM (≈ 0.853 µg/mL)
Mouse microglial cytotoxicity at 10 μM (<70% control) ([3]; 10 μM, BV2): Y (The compound was found to be cytotoxic (cell count threshold: <70% control) when murine immortalized microglial cells were dosed at 10 μM (Y: yes))

CN(C)CC#Cc1ccc(OCCCc2sc(N3CCc4cccc(C(=O)Nc5nc6ccccc6s5)c4C3)nc2C(=O)O)c(F)c1 [A-1155463]
Stimulation of mouse microglial phagocytosis at 10 μM (>150% control) ([1]; BV2, 10 μM): Y (The compound was found to stimulate phagocytosis (response threshold: >150% control) when murine immortalized microglial cells were dosed at 10 μM (Y: yes))
Inhibition of human microglial phagocytosis at 10 μM (<70% control) ([2]; HMC3, 10 μM): Y (The compound was found to inhibit phagocytosis (response threshold: <70% control) when human immortalized microglial cells were dosed at 10 μM (Y: yes))
solubility kinetic (physchem): 1.5 µM (≈ 1 µg/mL)

Cc1cc(Nc2nc(N[C@@H](C)c3ncc(F)cn3)ncc2Cl)n[nH]1 [AZD-1480]
Reported as cell active (<10 μM) (cellular system): Y (Published data supports that the compound is active in a cellular system when dosed at 10 μM (Y/N))
Stimulation of mouse microglial phagocytosis at 10 μM (>150% control) ([1]; BV2 cells, 10 μM): Y (The compound was found to stimulate phagocytosis (response threshold: >150% control) when murine immortalized microglial cells were dosed at 10 μM (Y: yes))
solubility kinetic (physchem): 141 µM (≈ 49 µg/mL)
Mouse microglial cytotoxicity at 10 μM (<70% control) ([3]; BV2 cells, 10 μM, cell count <70% control): Y (The compound was found to be cytotoxic (cell count threshold: <70% control) when murine immortalized microglial cells were dosed at 10 μM (Y: yes))

CCc1cc2c(cc1N1CCC(N3CCOCC3)CC1)C(C)(C)c1[nH]c3cc(C#N)ccc3c1C2=O [Alectinib]
Stimulation of mouse microglial phagocytosis at 10 μM (>150% control) ([1]; BV2, 10 μM): Y (The compound was found to stimulate phagocytosis (response threshold: >150% control) when murine immortalized microglial cells were dosed at 10 μM (Y: yes))
Inhibition of human microglial phagocytosis at 10 μM (<70% control) ([2]; HMC3, 10 μM): Y (The compound was found to inhibit phagocytosis (response threshold: <70% control) when human immortalized microglial cells were dosed at 10 μM (Y: yes))
solubility kinetic (physchem): 0.6 µM (≈ 0.29 µg/mL)
Human microglial cytotoxicity at 10 μM (<70% control) [4]: Y (The compound was found to be cytotoxic (cell count threshold: <70% control) when human immortalized microglial cells were dosed at 10 μM (Y: yes))

Cc1c(-c2ccc(O)cc2)n(Cc2ccc(OCCN3CCCCCC3)cc2)c2ccc(O)cc12 [Bazedoxifene acetate]
Inhibition of mouse microglial phagocytosis at 10 μM (<70% control) ([1]; 10 μM, BV2): Y (The compound was found to inhibit phagocytosis (response threshold: <70% control) when murine immortalized microglial cells were dosed at 10 μM (Y: yes))
Inhibition of human microglial phagocytosis at 10 μM (<70% control) ([2]; 10 μM, HMC3): Y (The compound was found to inhibit phagocytosis (response threshold: <70% control) when human immortalized microglial cells were dosed at 10 μM (Y: yes))
solubility kinetic (physchem): 10.8 µM

O=S(=O)(c1ccc2c(c1)C(=NO)c1cc(S(=O)(=O)N3CCCCC3)ccc1-2)N1CCCCC1 [CA3 (CIL56)]
Inhibition of mouse microglial phagocytosis at 10 μM (<70% control) ([1]; BV2, 10 μM): Y (The compound was found to inhibit phagocytosis (response threshold: <70% control) when murine immortalized microglial cells were dosed at 10 μM (Y: yes))
Inhibition of human microglial phagocytosis at 10 μM (<70% control) ([2]; HMC3, 10 μM): Y (The compound was found to inhibit phagocytosis (response threshold: <70% control) when human immortalized microglial cells were dosed at 10 μM (Y: yes))
solubility kinetic (physchem): 1.2 µM (≈ 0.588 µg/mL)
Mouse microglial cytotoxicity at 10 μM (<70% control) ([3]; BV2, 10 μM, cell count <70% control): Y (The compound was found to be cytotoxic (cell count threshold: <70% control) when murine immortalized microglial cells were dosed at 10 μM (Y: yes))
Human microglial cytotoxicity at 10 μM (<70% control) ([4]; cell count <70% control): Y (The compound was found to be cytotoxic (cell count threshold: <70% control) when human immortalized microglial cells were dosed at 10 μM (Y: yes))

CNC(=O)c1c(F)cccc1Nc1nc(Nc2cc3c(cc2OC)CCN3C(=O)CN(C)C)nc2[nH]ccc12 [GSK1838705A]
Inhibition of human microglial phagocytosis at 10 μM (<70% control) ([2]; HMC3, 10 μM): Y (The compound was found to inhibit phagocytosis (response threshold: <70% control) when human immortalized microglial cells were dosed at 10 μM (Y: yes))
solubility kinetic (physchem): 1 µM (≈ 0.533 µg/mL)
Mouse microglial cytotoxicity at 10 μM (<70% control) ([3]; BV2, 10 μM): Y (The compound was found to be cytotoxic (cell count threshold: <70% control) when murine immortalized microglial cells were dosed at 10 μM (Y: yes))

Cc1cc(SCc2sc(-c3ccc(C(F)(F)F)c(F)c3)nc2C)ccc1OCC(=O)O [GW0742]
Reported as cell active (<10 μM) (cellular system): Y (Published data supports that the compound is active in a cellular system when dosed at 10 μM (Y/N))
solubility kinetic (physchem): 145 µM (≈ 68.3 µg/mL)

CC[C@H](C)[C@H](N)C(=O)NCCN1CCOCC1.Cl.Cl [LM11A-31 dihydrochloride]
Reported as cell active (<10 μM) (cellular system): Y (Published data supports that the compound is active in a cellular system when dosed at 10 μM (Y/N))
Stimulation of mouse microglial phagocytosis at 10 μM (>150% control) ([1]; BV2 cells, 10 μM): Y (The compound was found to stimulate phagocytosis (response threshold: >150% control) when murine immortalized microglial cells were dosed at 10 μM (Y: yes))
solubility kinetic (physchem): 178 µM

Cc1ccc(S(=O)(=O)O)cc1.Nc1n[nH]cc1-c1cc(Cl)ccc1Oc1cc(F)c(S(=O)(=O)Nc2cscn2)cc1Cl [PF-05089771]
Reported as cell active (<10 μM) (cellular system): Y (Published data supports that the compound is active in a cellular system when dosed at 10 μM (Y/N))
solubility kinetic (physchem): 76.4 µM

O=c1[nH]c2ccccc2n1C1CCN(CCCC(c2ccc(F)cc2)c2ccc(F)cc2)CC1 [Pimozide]
Reported as cell active (<10 μM) (cellular system): Y (Published data supports that the compound is active in a cellular system when dosed at 10 μM (Y/N))
solubility kinetic (physchem): 2.9 µM (≈ 1.34 µg/mL)

NC(=O)[C@@H]1CC[C@H](c2ccc(OCc3ccccc3F)cc2)N1 [Raxatrigine]
Reported as cell active (<10 μM) (cellular system): Y (Published data supports that the compound is active in a cellular system when dosed at 10 μM (Y/N))
Stimulation of mouse microglial phagocytosis at 10 μM (>150% control) ([1]; BV2 cells, 10 μM): Y (The compound was found to stimulate phagocytosis (response threshold: >150% control) when murine immortalized microglial cells were dosed at 10 μM (Y: yes))
solubility kinetic (physchem): 178 µM (≈ 55.9 µg/mL)

CNC(=O)CN1CCC(Oc2cc3c(Nc4cccc(Cl)c4F)ncnc3cc2OC)CC1 [Sapitinib (AZD8931)]
Inhibition of mouse microglial phagocytosis at 10 μM (<70% control) ([1]; BV2, 10 μM): Y (The compound was found to inhibit phagocytosis (response threshold: <70% control) when murine immortalized microglial cells were dosed at 10 μM (Y: yes))
Stimulation of human microglial phagocytosis at 10 μM (>150% control) ([2]; HMC3, 10 μM): Y (The compound was found to stimulate phagocytosis (response threshold: >150% control) when human immortalized microglial cells were dosed at 10 μM (Y: yes))
solubility kinetic (physchem): 115 µM (≈ 54.3 µg/mL)

Cl.O=C(NCCCNc1nc(Nc2cccc(CN3CCOCC3)c2)ncc1C1CC1)C1CCC1 [UNC10302867A, reference compound]
Stimulation of mouse microglial phagocytosis at 10 μM (>150% control) ([1]; 10 μM, BV2): Y (The compound was found to stimulate phagocytosis (response threshold: >150% control) when murine immortalized microglial cells were dosed at 10 μM (Y: yes))
phagocytosis in mouse microglial cells (< 70% control inhibition, > 150% control stimulation) ([1]; BV2, 10 μM, pHrodo-myelin): stimulator of phagocytosis
4. Phagocytosis (% control) ([1]; BV2 cells, 10 uM compound, 48 hours treatment, pHrodo-myelin final 20 hours): 282.0 % control
Stimulation of human microglial phagocytosis at 10 μM (>150% control) ([2]; 10 μM, HMC3): Y (The compound was found to stimulate phagocytosis (response threshold: >150% control) when human immortalized microglial cells were dosed at 10 μM (Y: yes))
phagocytosis in human microglial cells (< 70% control inhibition, > 150% control stimulation) ([2]; HMC3, 10 μM, pHrodo-myelin): stimulator of phagocytosis
4. Phagocytosis (% control) ([2]; HMC3 cells, 10 uM compound, 48 hours treatment, pHrodo-myelin final 20 hours): 290.0 % control
solubility kinetic (physchem): 119 µM
Mouse microglial cytotoxicity at 10 μM (<70% control) ([3]; 10 μM, BV2): Y (The compound was found to be cytotoxic (cell count threshold: <70% control) when murine immortalized microglial cells were dosed at 10 μM (Y: yes))
1. Cell count (% control) [3, 5]: 17.6 % control
2. Nuclear Area (% Control) [3, 5]: 154.0 % Control
3. Nuclear DNA Intensity (% control) [3, 5]: 122.3 % control
1. Cell count (% control) [4, 6]: 81.1 % control
2. Nuclear Area (% Control) [4, 6]: 129.3 % Control
3. Nuclear DNA Intensity (% control) [4, 6]: 124.9 % control

CC(C)Nc1cc(-c2c[nH]c(C(=O)N[C@H](CO)c3cccc(Cl)c3)c2)c(Cl)cn1 [Ulixertinib]
Stimulation of mouse microglial phagocytosis at 10 μM (>150% control) ([1]; 10 μM, BV2): Y (The compound was found to stimulate phagocytosis (response threshold: >150% control) when murine immortalized microglial cells were dosed at 10 μM (Y: yes))
Inhibition of human microglial phagocytosis at 10 μM (<70% control) ([2]; 10 μM, HMC3): Y (The compound was found to inhibit phagocytosis (response threshold: <70% control) when human immortalized microglial cells were dosed at 10 μM (Y: yes))
solubility kinetic (physchem): 8.7 µM (≈ 3.77 µg/mL)
Mouse microglial cytotoxicity at 10 μM (<70% control) ([3]; 10 μM, BV2): Y (The compound was found to be cytotoxic (cell count threshold: <70% control) when murine immortalized microglial cells were dosed at 10 μM (Y: yes))

C=Cc1c(C)c2cc3nc(cc4[nH]c(cc5nc(cc1[nH]2)C(C)=C5CCC(=O)O)c(CCC(=O)OC)c4C)[C@@]1(C)C3=CC=C(C(=O)OC)[C@H]1C(=O)OC [Verteporfin]
Stimulation of mouse microglial phagocytosis at 10 μM (>150% control) ([1]; BV2, 10 μM): Y (The compound was found to stimulate phagocytosis (response threshold: >150% control) when murine immortalized microglial cells were dosed at 10 μM (Y: yes))
Inhibition of human microglial phagocytosis at 10 μM (<70% control) ([2]; HMC3, 10 μM): Y (The compound was found to inhibit phagocytosis (response threshold: <70% control) when human immortalized microglial cells were dosed at 10 μM (Y: yes))
solubility kinetic (physchem): 134 µM (≈ 96.7 µg/mL)
